This note sets out measurements from publication PMC5847527, “Identification of a novel 2-oxindole fluorinated derivative as in vivo antitumor agent for prostate cancer acting via AMPK activation” (Scientific Reports, 2018).

Data set [1] deals with LNCaP cells. Briefly: Cell viability by MTT assay, LNCaP. The format is cell-based, human. As for the experimental part: Figure 3 Comparison of the effect of 2-oxindole fluorinated derivatives on the proliferation of human prostate cancer cells. (A) Normal (PTN2 and RWPE-1) and cancer (PC3,DU145 and LNCaP) prostate cells were treated with different doses of the compounds for 24 hours and cell viability was monitored by MTT assay. […] (C) PC-3, DU145 and LNCaP cells were treated with 25 µM of compound 8c for different times. Values were normalized with the control and represent the mean ± SD of at least three independent experiments. *p < 0.05 and **p < 0.01 compared to control by the Student’s - test.
Human prostate cancer epithelial PC-3, DU145 and LNCaP and human prostate normal RWPE-1 cells were purchased from American Type Culture Collection (ATCC CRL-1435 CRL-1740 and CRL 11609 respectively) (Rockville, MD, USA). The human prostate normal PNT2 cell line was purchased to ECACC (European Collection of Cell cultures, Salisbury, SP4 0JG, UK). Cells were routinely grown in RPMI 1640 medium supplemented with 100 IU/ml penicillin G sodium, 100 µg/ml streptomycin sulfate, 0.25 µg/ml amphotericin B (Invitrogen, Paisley, UK) and 10% fetal calf serum. Cells were used at passages between 10–20. For treatment experiments, cells were plated and grown over night, the medium was then replaced with serum-free RPMI 1640 for 24 hours and then incubated with different doses of the compounds for the indicated times.
Cell viability was determined by 3-(4,5-dimethylthiazol-2-yl)-2,5-diphenyltetrazolium bromide (MTT) (Sigma-Aldrich) method. […] The optical density in each well was evaluated by measurement of absorbance at 490 and 650 nm using a microplate reader (ELX 800 Bio-Tek Intruments, INC). IC50 values were calculated using GraphPad Prism vs 6.0 (GraphPad Software, Inc, La Jolla, CA, USA). Cell viability was also determined by counting viable and dead cells by Trypan blue staining. Trypan blue positive and negative cells were counted using a Countess^TM automated cell counter (Invitrogen, Carlsbad, CA, USA). Results were expressed in relation to total number of cells counted.
On the technique in general: Formazan colour is commonly taken as a measure of viable cells.

Data set [2] is described as follows: Tolerability in PC-3 xenograft mice (weight, serum parameters, liver). The conditions noted are these: 5 mg/Kg daily, 15 days. The format is in vivo. The source says:
To validate the therapeutic value of the compound 8c against castration-resistant prostate cancer a murine xenograft model was employed. Due to the potent effect of compound 8c on the aggressive PC-3 cell line and in order to avoid unnecessary wasting of animals according to the 3 Rs guidelines (reduction, replacement, refinement) for the use of animals in research, we only use PC-3 cells for the in vivo studies. PC-3 tumors were induced in nude mice by subcutaneous injection of cells in the right flank of the mouse. When tumors reached a 70 mm^3 volume, mice were daily treated with 5 mg/Kg of compound 8c. In vehicle-treated mice, an increase in tumor growth volume was observed during the course of the study and at the end of experimentation (Fig. 8A).
Male immunodeficient nude-Foxn1 (nu/nu) mice (Envigo RMS, Barcelona, Spain), 4 to 6 week old, were used for all xenograft studies. […] Tumors were measured with external calipers and volume was calculated by the modified ellipsoidal formula as volume = length × (width)^2 × 0.52 mm^3 [52],[53]. At the end of the study, the mice were sacrificed by placing them in a CO2 gas-filled chamber, and the excised tumors were recovered and homogenized in lysis buffer for protein quantification and Western blotting. […]

Usually IC50 stands for the concentration at which inhibition is half-maximal. A low value points to greater potency in that assay. `O=C1Nc2ccccc2C1(F)Cc1ccc(-c2ccccc2)o1` (stereo not shown) [Compound 8c, 3-fluoro-3-((5-phenylfuran-2-yl)methyl)indolin-2-one]: the “inhibitory efficacy on cells viability at 50 μM” value in data set [1] (50 μM) worked out at 85%. Also, in data set [1] (Homo sapiens, MTT, 24 hours), half-maximal inhibition (IC50) was put at 30 µM. Further, in data set [2], the liver morphology result is recorded as “Liver morphology was normal” and the “mice weight or animal welfare” value is listed as “No effect on mice weight or animal welfare”.
